In PMC12730333 (Biology, 2025):
Where two headings read alike, the source gives them in different places. Marks after values point to notes of the source that are not given here.

Experiments:
J774.G8 cells = assay: Cytotoxicity assay (Alamar Blue, 24 h) on J774.G8 macrophages; format: cell-based, murine; details: 10^5 cells/well, read-out: CC50 J744.G8
Experimental: (§1) HepG2 cells (human hepatocellular carcinoma), VERO cells (African green monkey kidney), and J774.G8 macrophages (murine reticulosarcoma) were maintained in DMEM medium, supplemented with 10% FBS, 1% Pen/Str at 37 °C and 5% CO2 [70, 71]. For the cultivation of L929 fibroblasts (murine fibrosarcoma), RPMI 1640 medium without phenol red, supplemented with 2 mM L-glutamine, 10% FBS, and 1% Pen/Str, was used and maintained under the same conditions of temperature and CO2 as above.
(§2) J774.G8, VERO (10^5 cells/well), HepG2, L929 (0.5 × 10^5 cells/well) cells, and MPMs (3 × 10^5 cells/well) were centrifuged, resuspended in medium, plated in 96-well microplates, and incubated for 24 h under cultivation conditions. Subsequently, they were exposed to different concentrations of the compounds, serially diluted in medium to a final volume of 100 µL/well, and incubated for 24 h at 37 °C and 5% CO2. Cell viability was then assessed using the AB, and data were acquired by spectrophotometry. […] Untreated cells were used as negative controls, and cells exposed to the reference compound (MT) were used as positive controls. The Selectivity Index (SI) was calculated using the ratio SI = CC50 (mammalian cells)/IC50 (promastigote or amastigote forms of L. amazonensis).

L929 cells = assay: Cytotoxicity assay (Alamar Blue, 24 h) on L929 fibroblasts; format: cell-based, murine; details: for CC50: 0.5 × 10^5 cells/well
Experimental: as §1, §2

HepG2 cells [1] = assay: Cytotoxicity assay (Alamar Blue, 24 h) on HepG2 cells; format: cell-based, human; details: 0.5 × 10^5 cells/well
Experimental: as §1, §2

[2] = tested on: promastigote forms of Leishmania amazonensis PH8 strain; assay: Leishmanicidal activity assay on promastigotes (Alamar Blue, 24 h); format: cell-based; details: 10^6 parasites/mL
Experimental: Promastigote forms of Leishmania amazonensis (IFLA/BR/1967/PH8) were obtained from the Instituto Oswaldo Cruz Leishmania collection (CLIOC/Fiocruz). These cultures were maintained in Schneider’s Insect Medium, supplemented with 20% FBS and 1 μL/mL of Pen/Str at 26 °C. In vitro passages were conducted weekly, with promastigotes harvested during the late logarithmic phase for experiments on the 5th day of growth (Figure S1A).
MT was employed as the reference drug.

[3] = tested on: ex vivo amastigote forms of L. amazonensis LTB0016 strain; assay: Mitochondrial membrane potential (ΔΨm) by flow cytometry, TMRE, ex vivo amastigotes; details: for TMRE MFI, ex vivo Amastigotes High Population / TMRE MFI, ex vivo Amastigotes Low Population / VIΔΨm, ex vivo Amastigotes High Population / VIΔΨm, ex vivo Amastigotes Low Population: exposed to IC50, 24 h; for VIΔΨm, ex vivo Amastigotes High Population / VIΔΨm, ex vivo Amastigotes Low Population: (MT − MC)/MC
[4] = tested on: ex vivo amastigote forms of L. amazonensis LTB0016 strain; assay: Leishmanicidal activity assay on ex vivo amastigotes (Alamar Blue, 24 h); details: for efficacy compared with MT: concentrations below 0.28 μM; for inhibitory action compared with MT: doses < 0.10 μM; for IC50: read-out: IC50 Ama., 24 h
Description: Ex vivo amastigote forms of L. amazonensis (MHOM/BR/77/LTB0016) were harvested and purified from lesions of male BALB/c mice. For this, a suspension containing 10^6 amastigotes was inoculated subcutaneously into the intraplantar region of the hind paw. After 30 days, the animals were euthanized, and their paws were excised and rinsed in 70% ethanol. The epidermis and necrotic tissues were mechanically dissociated. Subsequently, the paws were placed in Petri dishes containing RPMI 1640 medium supplemented with 5% FBS and 2% Pen/Str. […] The supernatant was transferred to another tube, homogenized with a syringe, and centrifuged at 764× g for another 15 min. The supernatant was discarded, and the pellet was resuspended in RPMI 1640 medium [69].
(§4) Promastigotes were kept at 26 °C, whereas amastigotes were kept at 32 °C. After 24 h, parasite viability was assessed using the AB colorimetric method, and the data were analyzed using a spectrophotometer as previously described [74]. […] Wells with medium and without parasites were used as blanks, and wells with medium and untreated parasites were used as negative controls. MT was employed as the reference drug.

[5] = tested on: promastigote forms of Leishmania amazonensis PH8 strain; assay: Mitochondrial membrane potential (ΔΨm) by flow cytometry, TMRE, promastigotes; details: exposed to IC50, 24 h; for VIΔΨm, Promastigotes High Population / VIΔΨm, Promastigotes Low Population: (MT − MC)/MC; for VIΔΨm, Promastigotes Low Population: negative = depolarization
[6] = tested on: promastigote forms of Leishmania amazonensis PH8 strain; assay: ROS production by flow cytometry, H2DCFDA, promastigotes; format: cell-based; details: exposed to IC50 (AA 10 µM), 24 h
[7] = tested on: ex vivo amastigote forms of L. amazonensis LTB0016 strain; assay: ROS production by flow cytometry, H2DCFDA, ex vivo amastigotes; format: cell-based, Leishmania amazonensis; details: exposed to IC50 (AA 10 µM), 24 h; for VIROS, Ex Vivo Amastigotes High Population / VIROS, Ex Vivo Amastigotes Low Population: MT/MC
[8] = tested on: Leishmania amazonensis promastigote forms (PH8 strain); details: exposed to IC50, 24–168 h
Experimental: as §4

[9] = tested on: murine peritoneal macrophages—MPMs; assay: Cytotoxicity assay (Alamar Blue, 24 h) on murine peritoneal macrophages; format: cell-based, Swiss Webster mice; details: 3 × 10^5 cells/well
Experimental: (§3) Murine peritoneal macrophages—MPMs (primary cells)—were isolated from male Swiss Webster mice stimulated with 1 mL of 3% Brewer’s thioglycollate medium, administered intraperitoneally. After 96 h, the animals were euthanized, and the MPMs were collected by peritoneal lavage with approximately 10 mL of RPMI 1640 medium. The cell suspension was centrifuged at 382× g for 10 min, and the pellet was resuspended in medium supplemented with 5% FBS, 1% Pen/Str, and 2 mM L-glutamine. All cell cultures were maintained at 37 °C and 5% CO2 [73]. For the experiments, all cell types were cultured until confluency.
as §2

VERO cells = assay: Cytotoxicity assay (Alamar Blue, 24 h) on VERO cells; format: cell-based, African green monkey; details: for CC50: 10^5 cells/well
Experimental: as §1, §2

[10] = Cytotoxicity assay (Alamar Blue, 24 h) on J774.G8 macrophages; format: cell-based, murine; details: mouse, J774.G8 macrophages, 10^5 cells/well, read-out: CC50 J744.G8
Experimental: as §1, §2

[11] = Cytotoxicity assay (Alamar Blue, 24 h) on L929 fibroblasts; format: cell-based, murine; details: mouse, L929 fibroblasts; for CC50 at 24 h: 0.5 × 10^5 cells/well
Experimental: as §1, §2

[12] = Cytotoxicity assay (Alamar Blue, 24 h) on HepG2 cells; format: cell-based, human; details: human, HepG2 cells, 0.5 × 10^5 cells/well
Experimental: as §1, §2

[13] = Cytotoxicity assay (Alamar Blue, 24 h) on murine peritoneal macrophages; format: cell-based, Swiss Webster mice; details: male, Swiss Webster, mouse, murine peritoneal macrophages (MPMs, primary cells); for CC50 at 24 h: 3 × 10^5 cells/well
Experimental: as §3, §2

[14] = Cytotoxicity assay (Alamar Blue, 24 h) on VERO cells; format: cell-based, African green monkey; details: African green monkey, VERO cells, 10^5 cells/well
Experimental: as §1, §2

HepG2 cells [15] = tested on: HepG2 cells; design: method as in Araújo et al. 120; details: ref Araújo et al. 120; read-out: cytotoxic concentration (compared with CC50 in HepG2); cited from earlier work
[16] = ex vivo amastigotes, 10^6 parasites/mL

Structure (SMILES)	CC50 (J774.G8 cells) [µM]	CC50 (L929 cells) [µM]	CC50 (HepG2 cells [1]) [µM]	IC50 [2] [µM]	TMRE MFI, ex vivo Amastigotes High Population [3]	TMRE MFI, ex vivo Amastigotes Low Population [3]	VIΔΨm, ex vivo Amastigotes High Population [3]	VIΔΨm, ex vivo Amastigotes Low Population [3]	inhibitory action compared with MT ([4]; ex vivo amastigotes)	TMRE MFI, Promastigotes High Population [5]	TMRE MFI, Promastigotes Low Population [5]	VIΔΨm, Promastigotes High Population [5]	VIΔΨm, Promastigotes Low Population [5]	H2DCFDA MFI, Promastigotes High Population [6]	H2DCFDA MFI, Promastigotes Low Population [6]	H2DCFDA MFI, Ex Vivo Amastigotes High Population [7]	H2DCFDA MFI, Ex Vivo Amastigotes Low Population [7]	VIROS, Ex Vivo Amastigotes High Population [7]	VIROS, Ex Vivo Amastigotes Low Population [7]	time from which proliferation was significantly (p < 0.05) reduced compared to MT [8] [h]	other results
CCNc1cc2[s+]c3cc(NCC)c(C)cc3nc2cc1C.F[P-](F)(F)(F)(F)F.F[P-](F)(F)(F)(F)F.F[P-](F)(F)(F)(F)F.F[P-](F)(F)(F)(F)F.N#[O+].[Ru+2].c1cnc2c(c1)ccc1cccnc12.c1cnc2c(c1)ccc1cccnc12 [NMB-P, new methylene blue P]	69.8 ± 10.4	150 ± 12	35.1 ± 2.08	2.84	642,051.43	7215.47	0.39 ± 0.13	0.21 ± 0.04	more inhibitory action	86,029.23	3359.03 *	0.49 ± 0.36	−0.28 ± 0.03	2,325,902.50 **	34,607.80	140,291.57	3063.17	0.90 ± 0.45	1.27 ± 0.45	≥ 96	efficacy compared with MT ([4]; ex vivo amastigotes): surpassed the efficacy of MT; IC50 [4, 16]: 0.46 ± 0.34 µM; CC50 [9]: 71.6 ± 1.85 µM; CC50 (VERO cells): 240 ± 27.6 µM
CCNc1cc2[s+]c3cc(NCC)c(C)cc3nc2cc1C [NMB, new methylene blue]			71.6 ± 3.15	5.42	277,557.80 *	3770.37	−0.43 ± 0.20	−0.27 ± 0.06	more inhibitory action	65,590.87	4095.05	0.11 ± 0.08	−0.14 ± 0.20	1,512,521.00 *	31,489.80	131,669.43	2940.57	0.84 ± 0.51	1.62 ± 0.90	≥ 72	CC50 at 24 h [10]: 68.5 ± 2.12 µM; CC50 at 24 h [11]: 280.2 ± 2.19 µM; viability at 24 h ([11]; lower concentrations (37–100 μM), read-out: viability of L929 cells): > 50%; CC50 at 24 h [12]: > 70 µM; IC50 ([2]; Leishmania amazonensis): < 5.5 µM; loss of potential (ΔΨm) in HP ex vivo amastigotes / mitochondrial depolarization ([3]; IC50, 24 h): up to 61%; IC50 ([4]; Leishmania amazonensis): 2.66 ± 0.95 µM; efficacy compared with MT ([4]; ex vivo amastigotes): surpassed the efficacy of MT; CC50 at 24 h [13]: 31.3 ± 5.72 µM; CC50 at 24 h [14]: 44.7 ± 3.4 µM
CCNc1cc2[s+]c3cc(NCC)c(C)cc3nc2cc1C.F[P-](F)(F)(F)(F)F.F[P-](F)(F)(F)(F)F.F[P-](F)(F)(F)(F)F.F[P-](F)(F)(F)(F)F.N#[O+].[Ru+2].c1ccc(-c2ccccn2)nc1.c1ccc(-c2ccccn2)nc1 [NMB-B, new methylene blue B]	130 ± 7.35	270 ± 8.48	34.2 ± 7.31	5.48	410,112.30	4174.80	−0.59 ± 0.21	−0.31 ± 0.03	more inhibitory action	74,562.13	4070.50	0.27 ± 0.16	−0.13 ± 0.09	2,639,177.00 **	39,191.97	131,896.27	2116.87	0.85 ± 0.49	1.11 ± 0.48	≥ 48	viability of L929 cells (L929 cells; lower concentrations (37–100 μM)): > 50%; decrease of ΔΨm considering both subpopulations ([3]; ex vivo amastigotes, LP plus HP, IC50, 24 h): 90%; IC50 [4, 16]: 3.16 ± 0.37 µM; CC50 [9]: 65.9 ± 1.69 µM; CC50 (VERO cells): 248 ± 32.9 µM
C[C@@H]1[C@H](O)[C@@H](C)/C=C/C=C/C=C/C=C/C=C/C=C/C=C/[C@H](O[C@@H]2O[C@H](C)[C@@H](O)[C@H](N)[C@@H]2O)C[C@@H]2O[C@](O)(C[C@@H](O)C[C@@H](O)[C@H](O)CC[C@@H](O)C[C@@H](O)CC(=O)O[C@H]1C)C[C@H](O)[C@H]2C(=O)O [Amphotericin B]																					CC50 (HepG2 cells [15]): 35.2 µM
CCCCCCCCCCCCCCCCOP(=O)([O-])OCC[N+](C)(C)C [Miltefosine, miltefosine, reference compound]																					CC50 at 24 h [10]: 156 ± 8.48 µM; CC50 at 24 h [11]: 113 ± 18.2 µM; CC50 at 24 h [12]: 181 ± 11.3 µM; IC50 ([2]; Leishmania amazonensis): 23.2 ± 2.55 µM; IC50 ([4]; Leishmania amazonensis): 0.97 ± 0.4 µM; CC50 at 24 h [13]: 103 ± 4.77 µM; viability at 24 h ([13]; exposures up to 70 μM): > 50%; CC50 at 24 h [14]: 168 ± 2.75 µM; viability of VERO cells (VERO cells; concentrations ≥ 300 μM): eliminated the viability
CCCCCC[C@H]1C(=O)O[C@H](C)[C@H](NC(=O)c2cccc(NC=O)c2O)C(=O)O[C@@H](C)[C@@H]1OC(=O)CC(C)C [AA, Antimycin A, reference compound]														890,705.80	19,775.40	143,227.25	3011.23	0.60 ± 0.53	1.14 ± 0.38		VIROS, Promastigotes Low Population ([6]; MT/MC): 0.52 ± 0.13; VIROS, Promastigotes High Population ([6]; MT/MC (fold of control)): 2.07 ± 0.23
